Measurements as given in ChEMBL document CHEMBL1201862, “PubChem BioAssay data set” (2004).
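These data come from cells grown in 96-well plates and exposed to compound for 48 hours at five concentrations. Abbreviation: GI50, concentration required for 50% inhibition of growth.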 Calls of active or inactive are those of the source. No stated cut-off is given here; in the data, active = GI50 up to about 1.1 µM and inactive = higher.

Experiments:
Assay in all cases: NCI anticancer screen, dose series, 48 h
ACHN = system: ACHN
CCRF-CEM = system: CCRF-CEM
LXFL 529 = system: LXFL 529
NCI-H522 = system: NCI-H522
KM-20L2 = system: KM-20L2
EKVX = system: EKVX
SF-268 = system: SF-268
SR = system: SR
LOX IMVI = system: LOX IMVI
DMS-273 = system: DMS-273
MOLT-4 = system: MOLT-4
SK-MEL-2 = system: SK-MEL-2
NCI-H23 = system: NCI-H23
TK-10 = system: TK-10
A549 = system: A549
HL-60 = system: HL-60
CAKI-1 = system: CAKI-1
SN12C = system: SN12C
U-251 = system: U-251
SK-OV-3 = system: SK-OV-3
Malme-3M = system: Malme-3M
XF498 = system: XF498
COLO 205 = system: COLO 205
UACC-62 = system: UACC-62
OVCAR-8 = system: OVCAR-8
NCI-H460 = system: NCI-H460
DLD-1 = system: DLD-1
SK-MEL-28 = system: SK-MEL-28
HOP-62 = system: HOP-62
M19-MEL = system: M19-MEL
HOP-92 = system: HOP-92
SW-620 = system: SW-620
SK-MEL-5 = system: SK-MEL-5
A498 = system: A498
UACC-257 = system: UACC-257
K562 = system: K562
SF-539 = system: SF-539
SF-295 = system: SF-295
NCI-H226 = system: NCI-H226
OVCAR-5 = system: OVCAR-5
HT-29 = system: HT-29
KM12 = system: KM12
RXF 393 = system: RXF 393
DMS-114 = system: DMS-114
RXF 631 = system: RXF 631
SNB-78 = system: SNB-78
786-0 = system: 786-0
SNB-19 = system: SNB-19
UO-31 = system: UO-31
OVCAR-4 = system: OVCAR-4
SNB-75 = system: SNB-75
IGROV-1 = system: IGROV-1
M14 = system: M14
HOP-18 = system: HOP-18
OVCAR-3 = system: OVCAR-3
HCC 2998 = system: HCC 2998
RPMI-8226 = system: RPMI-8226
HCT-15 = system: HCT-15
HCT-116 = system: HCT-116

With `Cc1cc(C)c(C(=O)O)c(SSc2cc(C)cc(C)c2C(=O)O)c1` the GI50 (ACHN) was > 100 µM (inactive), the GI50 (CCRF-CEM) was 57.7 µM (inactive) and the GI50 (LXFL 529) was > 100 µM (inactive). The GI50 (NCI-H522) was > 100 µM (inactive), the GI50 (KM-20L2) was > 100 µM (inactive) and the GI50 (EKVX) was > 100 µM (inactive). The GI50 (SF-268) was > 100 µM (inactive), the GI50 (SR) was > 100 µM (inactive) and the GI50 (LOX IMVI) was > 100 µM (inactive). The GI50 (DMS-273) was > 100 µM (inactive), the GI50 (MOLT-4) was > 100 µM (inactive) and the GI50 (SK-MEL-2) was > 100 µM (inactive). For the same molecule, the GI50 (NCI-H23) was > 100 µM (inactive), the GI50 (TK-10) was > 100 µM (inactive) and the GI50 (A549) was > 100 µM (inactive). The GI50 (HL-60) was > 100 µM (inactive), the GI50 (CAKI-1) was > 100 µM (inactive) and the GI50 (SN12C) was > 100 µM (inactive). The GI50 (U-251) was > 100 µM (inactive), the GI50 (SK-OV-3) was > 100 µM (inactive) and the GI50 (Malme-3M) was > 100 µM (inactive). The GI50 (XF498) was > 100 µM (inactive), the GI50 (COLO 205) was > 100 µM (inactive) and the GI50 (UACC-62) was > 100 µM (inactive). The GI50 (OVCAR-8) was > 100 µM (inactive), the GI50 (NCI-H460) was > 100 µM (inactive) and the GI50 (DLD-1) was > 100 µM (inactive). The GI50 (SK-MEL-28) was > 100 µM (inactive), the GI50 (HOP-62) was > 100 µM (inactive) and the GI50 (M19-MEL) was > 100 µM (inactive). For the same molecule, the GI50 (HOP-92) was > 100 µM (inactive), the GI50 (SW-620) was > 100 µM (inactive) and the GI50 (SK-MEL-5) was > 100 µM (inactive). The GI50 (A498) was > 100 µM (inactive), the GI50 (UACC-257) was > 100 µM (inactive) and the GI50 (K562) was > 100 µM (inactive). For the same molecule, the GI50 (SF-539) was > 100 µM (inactive), the GI50 (SF-295) was > 100 µM (inactive) and the GI50 (NCI-H226) was > 100 µM (inactive). The GI50 (OVCAR-5) was > 100 µM (inactive), the GI50 (HT-29) was > 100 µM (inactive) and the GI50 (KM12) was > 100 µM (inactive). For the same molecule, the GI50 (RXF 393) was > 100 µM (inactive), the GI50 (DMS-114) was > 100 µM (inactive) and the GI50 (RXF 631) was > 100 µM (inactive). For the same molecule, the GI50 (SNB-78) was > 100 µM (inactive), the GI50 (786-0) was > 100 µM (inactive) and the GI50 (SNB-19) was > 100 µM (inactive). The GI50 (UO-31) was > 100 µM (inactive) and the GI50 (OVCAR-4) was > 100 µM (inactive).

In the case of `CN(C)c1n/c(=N/c2ccc(/N=c3\nc(N(C)C)ss3)cc2)ss1`, the GI50 (ACHN) is reported as 36.9 µM (inactive), the GI50 (CCRF-CEM) is reported as 4.99 µM (inactive) and the GI50 (LXFL 529) is reported as > 33.5 µM (inactive). The GI50 (NCI-H522) was 11.5 µM (inactive), the GI50 (KM-20L2) was 48.3 µM (inactive) and the GI50 (EKVX) was > 74.8 µM (inactive). The GI50 (SF-268) was 37.9 µM (inactive), the GI50 (SR) was 6.01 µM (inactive) and the GI50 (LOX IMVI) was > 44.8 µM (inactive). The GI50 (DMS-273) was 28.8 µM (inactive), the GI50 (MOLT-4) was 8.49 µM (inactive) and the GI50 (SK-MEL-2) was 69.5 µM (inactive). The GI50 (NCI-H23) was 12.4 µM (inactive), the GI50 (TK-10) was 24.2 µM (inactive) and the GI50 (A549) was 37.9 µM (inactive). The GI50 (SNB-75) was 13.5 µM (inactive), the GI50 (IGROV-1) was 27.5 µM (inactive) and the GI50 (HL-60) was 12.4 µM (inactive). For the same molecule, the GI50 (CAKI-1) was > 44.3 µM (inactive), the GI50 (SN12C) was 40.3 µM (inactive) and the GI50 (U-251) was 29.9 µM (inactive). For the same molecule, the GI50 (SK-OV-3) was > 100 µM (inactive), the GI50 (Malme-3M) was 22.5 µM (inactive) and the GI50 (M14) was 12.9 µM (inactive). The GI50 (COLO 205) was 28.2 µM (inactive), the GI50 (UACC-62) was 3.38 µM (inactive) and the GI50 (OVCAR-8) was 16.7 µM (inactive). The GI50 (NCI-H460) was 30.2 µM (inactive), the GI50 (DLD-1) was 13.4 µM (inactive) and the GI50 (SK-MEL-28) was 16.8 µM (inactive). For the same molecule, the GI50 (HOP-62) was > 100 µM (inactive), the GI50 (M19-MEL) was 20.3 µM (inactive) and the GI50 (HOP-92) was > 100 µM (inactive). For the same molecule, the GI50 (SW-620) was > 40.7 µM (inactive), the GI50 (HOP-18) was 54 µM (inactive) and the GI50 (SK-MEL-5) was 22.4 µM (inactive). For the same molecule, the GI50 (OVCAR-3) was 28.2 µM (inactive), the GI50 (A498) was 33 µM (inactive) and the GI50 (HCC 2998) was > 83 µM (inactive). For the same molecule, the GI50 (UACC-257) was 27.5 µM (inactive), the GI50 (K562) was 11.7 µM (inactive) and the GI50 (SF-539) was 35.4 µM (inactive). The GI50 (SF-295) was 39.8 µM (inactive), the GI50 (RPMI-8226) was 9.68 µM (inactive) and the GI50 (NCI-H226) was 56.5 µM (inactive). For the same molecule, the GI50 (OVCAR-5) was > 100 µM (inactive), the GI50 (HT-29) was 21.9 µM (inactive) and the GI50 (KM12) was 47.3 µM (inactive). The GI50 (RXF 393) was 16.5 µM (inactive), the GI50 (HCT-15) was 27 µM and the GI50 (HCT-116) was 15.1 µM (inactive). The GI50 (DMS-114) was 16.7 µM (inactive), the GI50 (RXF 631) was 22 µM (inactive) and the GI50 (SNB-78) was 17.6 µM (inactive). For the same molecule, the GI50 (786-0) was 63.7 µM (inactive), the GI50 (SNB-19) was 32.4 µM (inactive) and the GI50 (UO-31) was 44 µM (inactive). The GI50 (OVCAR-4) was 20 µM (inactive).

For `Cc1cc(N(CCC#N)CCC#N)ccc1/C=C\C(=O)Nc1ccccc1`, the GI50 (ACHN) was 4.43 µM (inactive), the GI50 (CCRF-CEM) was > 100 µM (inactive) and the GI50 (LXFL 529) was 0.859 µM (active). The GI50 (NCI-H522) was > 100 µM (inactive), the GI50 (KM-20L2) was 1.07 µM (active) and the GI50 (EKVX) was > 100 µM (inactive). For the same molecule, the GI50 (SF-268) was 97.1 µM (inactive), the GI50 (LOX IMVI) was 1.26 µM (inactive) and the GI50 (DMS-273) was 59.2 µM (inactive). The GI50 (MOLT-4) was > 100 µM (inactive), the GI50 (SK-MEL-2) was > 100 µM (inactive) and the GI50 (NCI-H23) was > 100 µM (inactive). The GI50 (TK-10) was > 100 µM (inactive), the GI50 (A549) was > 100 µM (inactive) and the GI50 (SNB-75) was > 100 µM (inactive). For the same molecule, the GI50 (IGROV-1) was > 100 µM (inactive), the GI50 (HL-60) was 26 µM (inactive) and the GI50 (CAKI-1) was > 100 µM (inactive). For the same molecule, the GI50 (SN12C) was > 100 µM (inactive), the GI50 (U-251) was > 100 µM (inactive) and the GI50 (SK-OV-3) was > 100 µM (inactive). The GI50 (Malme-3M) was > 100 µM (inactive), the GI50 (M14) was 2.9 µM (inactive) and the GI50 (XF498) was > 100 µM (inactive). The GI50 (COLO 205) was > 100 µM (inactive), the GI50 (UACC-62) was 0.931 µM (active) and the GI50 (OVCAR-8) was > 100 µM (inactive). For the same molecule, the GI50 (NCI-H460) was 71.3 µM (inactive), the GI50 (DLD-1) was 8.17 µM (inactive) and the GI50 (SK-MEL-28) was > 100 µM (inactive). For the same molecule, the GI50 (HOP-62) was 57 µM (inactive), the GI50 (M19-MEL) was 36.7 µM (inactive) and the GI50 (HOP-92) was > 100 µM (inactive). For the same molecule, the GI50 (SW-620) was > 100 µM (inactive), the GI50 (SK-MEL-5) was > 100 µM (inactive) and the GI50 (OVCAR-3) was > 100 µM (inactive). For the same molecule, the GI50 (A498) was > 100 µM (inactive), the GI50 (HCC 2998) was 13.6 µM (inactive) and the GI50 (UACC-257) was > 100 µM (inactive). For the same molecule, the GI50 (K562) was 1.37 µM (inactive), the GI50 (SF-539) was 76.7 µM (inactive) and the GI50 (SF-295) was 86.1 µM (inactive). The GI50 (RPMI-8226) was > 100 µM (inactive), the GI50 (NCI-H226) was > 100 µM (inactive) and the GI50 (OVCAR-5) was 30.3 µM (inactive). For the same molecule, the GI50 (HT-29) was 5.92 µM (inactive), the GI50 (KM12) was 97.5 µM (inactive) and the GI50 (HCT-15) was 0.887 µM. For the same molecule, the GI50 (HCT-116) was > 100 µM (inactive), the GI50 (DMS-114) was 49.7 µM (inactive) and the GI50 (RXF 631) was > 100 µM (inactive). The GI50 (786-0) was > 100 µM (inactive), the GI50 (SNB-19) was > 100 µM (inactive) and the GI50 (UO-31) was 33.5 µM (inactive). For the same molecule, the GI50 (OVCAR-4) was 62.4 µM (inactive).
